Measured values taken from patent US9259409B2, “Compositions comprising a prostaglandin for treating neuropsychiatric conditions” (Inceptum Research & Therapeutics, Inc., priority 2011, dated 2016).
“Also recorded” adds a separate entry of the source.

Legend:
DBA/2J mice = test: Open field test, amphetamine-stimulated activity mouse model of bipolar disorder; assay type: in vivo
Description: DBA/2J strain mice (Jackson Laboratories, Bar Harbor, Me., USA) were obtained with an approximate starting age of 8 weeks and an average body weight of 25.9 g. Mice were acclimatized for at least three days prior to study commencement, and animals in poor condition were rejected during the acclimatization period. All mice were housed under identical conditions in animal rooms with HEPA-filtered air at a temperature of 70° F.+/−5° F. and a relative humidity of 50%+/−20%. Animal rooms maintained a minimum of 12 to 15 air changes per hour with a light/dark cycle of 12 hours on and 12 hours off with no twilight. Sterile Bed-O-Cobs® bedding was used and changed a minimum of once per week. […]
At the commencement of the study, sixty (60) mice were randomly divided into six (6) groups of ten (10) animals. […] During this time, distance traveled was automatically recorded using TopScan (Clever Sys, Reston, Va., USA) video tracking software.
The data herein indicate that PG and PG derivatives may be effective in treating neuropsychiatric conditions such as bipolar disorder. Therefore, we evaluated the efficacy of latanoprost in an open field model of bipolar disorder in mice. […]
Total distance traveled for each mouse over a 20-minute session was recorded using TopScan (Clever Sys, Reston, Va., USA) video tracking software. […]

GSK-3 [1] = test: Glycogen deposition in fat body tissue of third instar larvae; assay type: cell-based, Drosophila melanogaster; details: 10 and 20 μM; vs vehicle (DMSO)
Description: GSK-3 also functions in glycogen deposition via an independent pathway to that of the Wnt/Wg signaling pathway. GSK-3 functions in the glycogen deposition pathway by phosphorylating and inactivating glycogen synthase, which catalyzes the rate-limiting step of glycogen synthesis. To further confirm that PG and PG derivatives inhibit GSK-3 activity, fat body tissue from third instar Drosophila melanogaster larvae was treated with vehicle (DMSO) or 10 and 20 μM latanoprost and the effects of drug treatment on glycogen accumulation was monitored.

[2] = test system: human oligodendrocyte cell line MO3-13; test: Immuno-slotblot assay for secreted BDNF, oligodendrocyte conditioned media; assay type: cell-based; details: 1 μM, 5 μM, 10 μM; oligodendrocytes media; vs non-treated and DMSO
Description: Human embryonic kidney 293T (HEK293T) cells, U87MG astrocytoma and the human oligodendrocyte cell line MO3-13 were grown in Dubelco Minimal Eagle Media (DMEM) (Invitrogen, Carlsbad, Calif., USA) supplemented with 5% heat inactivated fetal bovine serum. Cells were grown to 70% confluence prior to treatment. HEK293T cells were treated individually with […] latanoprost, unoprostone, bimatoprost, fluprostenol, PGE2, and PGF2α in serum-free DMEM. Cells were exposed to drug for 3 hours at 37° C. in a 5% CO2 incubator. U87MG cells were grown to 70% confluence prior to treatment. […]
Cell culture media from cells that were not treated or treated with DMSO, 1, 5 or 10 μM latanoprost treated was collected in 15-mL screw cap polypropylene tubes from cell culture dishes. […] The relative amount of BDNF secreted by U87MG astrocytoma and MO3-13 oligodendrocyte cell lines were determined by an immune-slotblot method in which 200 μL of conditioned media was applied in triplicate to nitrocellulose membrane pre-wet in water in a Biodot (SF) ultrafiltration unit (Bio-Rad Laboratories, Mississauga, ON, Canada) under vacuum. […] After washing the membrane as above, the bound secondary antibody was detected by ECL Advance™ Western blot HRP substrate (GE Healthcare) using a ChemiDoc™ MP Imaging System (Bio-Rad Laboratories). The relative amount of BDNF was determined by using ImageLab™ software (BioRad). […]

GSK-3 [3] = test: Distalless (Dll) expression in Drosophila wing imaginal discs as assay of GSK-3 function; assay type: cell-based

`CC(C)OC(=O)CCC/C=C\C[C@@H]1[C@@H](CC[C@@H](O)CCc2ccccc2)[C@H](O)C[C@@H]1O` [latanoprost, propan-2-yl-(Z)-7-[(1R,2R,3R,5S)-3,5-dihydroxy-2-[(3R)-3-hydroxy-5-phenylpentyl]cyclopentyl]-hept-5-enoate] was tested, and the “amphetamine-stimulated locomotion (distance traveled)” value (DBA/2J mice; final five minutes of 20-minute open field test, 0.5 mg/kg amphetamine, drug IP 1 hour prior to test, 0.5 mg/kg) was “significantly reduced; also recorded: significantly (P<0.05) attenuates”, the “activity in saline-treated mice” value (DBA/2J mice; no amphetamine, compared among vehicle, latanoprost, lithium) was “No significant differences” and the “glycogen accumulation in fat body tissue” value (GSK-3 [1]) was “increase in glycogen accumulation in a dosage-dependent manner”. The “amount of BDNF secreted” value [2] was “no significant increase”, the “Dll expression in wing imaginal discs” value (GSK-3 [3]; 20 μM, Dll lacZ, vs DMSO) was “increased Dll expression” and the “Dll activation (DLL protein levels in wing pouch)” value (GSK-3 [3]; increasing doses 1 μM, 5 μM, 10 μM and 20 μM, vs DMSO control vehicle) was “significant activation of Dll”.
